Molecules are shown by their SMILES.

In this assay the target is T1, saccharase (Sus scrofa, UniProt P56729).
T1 construct: sucrase subunit of the sucrase-isomaltase complex hydrolyses sucrose
The assay can be described thus: In vitro saccharase test. It counts as biochemical, pig. The note with it: isolated isomer, Example 19. How it is done:
One saccharase inhibitor unit (SIU) is defined as the amount of inhibitor which inhibits two saccharase units to the extent of 50%. One saccharase unit (SU) is the amount of enzyme which under the test conditions specified splits 1 μmol of sucrose to glucose and fructose per minute. The μmols of glucose formed are determined quantitatively by means of the glucose oxidase reaction under conditions under which a further splitting of the sucrose by the saccharase no longer takes place. To carry out the test, 0.05 ml of solubilized saccharase [from the mucous membrane of the small intestine of the pig, according to B. Borgastrom, A. Dahlquist, Acta Chem. Scand. 12, (1958), page 1,997], diluted with 0.1 M sodium maleate buffer of pH 6.0 to a SU content adjusted to 0.12 SU is mixed with 0-20 μg of inhibitor or 0-20 μl of the solution to be tested and brought up to 0.1 ml with 0.1 M sodium maleate buffer of pH 6.0. The mixture is equilibrated for 10 minutes at 35° C and 0.1 ml of an 0.05 M sucrose solution in 0.1 M sodium maleate buffer of pH 6.0, pre-warmed to 35° C, is then added. The mixture is incubated for 20 minutes at 35° C, the saccharase reaction is stopped by addition of 1 ml of glucose oxidase reagent, and the incubation is continued for a further 30 minutes at 35° C. (The glucose oxidase reagent is prepared by dissolving 2 mg of glucose oxidase, Boehringer, No. 15,423, in 100 ml of 0.565 M tris-HCl buffer of pH 7.0 and subsequently adding 1 ml of detergent solution (2 g of Triton X 100 + 8 g of 95% strength and analytical grade ethanol), 1 ml of dianisidine solution (260 mg of o-dianisidine. 2HCl in 20 ml of H2 O) and 0.5 ml of 0.1% strength aqueous peroxidase solution, Boehringer, No. 15,302). Thereafter, 1 ml of 50% strength H2 SO4 is added and a measurement carried out at 545 nm against a corresponding blank. To evaluate the results, the percentage inhibition of the saccharase employed is calculated and converted to SIU/g of SIU/liter from the 50% inhibition point, using a glucose calibration curve.

T1 sequence (P56729 with tags, fused parts or gaps): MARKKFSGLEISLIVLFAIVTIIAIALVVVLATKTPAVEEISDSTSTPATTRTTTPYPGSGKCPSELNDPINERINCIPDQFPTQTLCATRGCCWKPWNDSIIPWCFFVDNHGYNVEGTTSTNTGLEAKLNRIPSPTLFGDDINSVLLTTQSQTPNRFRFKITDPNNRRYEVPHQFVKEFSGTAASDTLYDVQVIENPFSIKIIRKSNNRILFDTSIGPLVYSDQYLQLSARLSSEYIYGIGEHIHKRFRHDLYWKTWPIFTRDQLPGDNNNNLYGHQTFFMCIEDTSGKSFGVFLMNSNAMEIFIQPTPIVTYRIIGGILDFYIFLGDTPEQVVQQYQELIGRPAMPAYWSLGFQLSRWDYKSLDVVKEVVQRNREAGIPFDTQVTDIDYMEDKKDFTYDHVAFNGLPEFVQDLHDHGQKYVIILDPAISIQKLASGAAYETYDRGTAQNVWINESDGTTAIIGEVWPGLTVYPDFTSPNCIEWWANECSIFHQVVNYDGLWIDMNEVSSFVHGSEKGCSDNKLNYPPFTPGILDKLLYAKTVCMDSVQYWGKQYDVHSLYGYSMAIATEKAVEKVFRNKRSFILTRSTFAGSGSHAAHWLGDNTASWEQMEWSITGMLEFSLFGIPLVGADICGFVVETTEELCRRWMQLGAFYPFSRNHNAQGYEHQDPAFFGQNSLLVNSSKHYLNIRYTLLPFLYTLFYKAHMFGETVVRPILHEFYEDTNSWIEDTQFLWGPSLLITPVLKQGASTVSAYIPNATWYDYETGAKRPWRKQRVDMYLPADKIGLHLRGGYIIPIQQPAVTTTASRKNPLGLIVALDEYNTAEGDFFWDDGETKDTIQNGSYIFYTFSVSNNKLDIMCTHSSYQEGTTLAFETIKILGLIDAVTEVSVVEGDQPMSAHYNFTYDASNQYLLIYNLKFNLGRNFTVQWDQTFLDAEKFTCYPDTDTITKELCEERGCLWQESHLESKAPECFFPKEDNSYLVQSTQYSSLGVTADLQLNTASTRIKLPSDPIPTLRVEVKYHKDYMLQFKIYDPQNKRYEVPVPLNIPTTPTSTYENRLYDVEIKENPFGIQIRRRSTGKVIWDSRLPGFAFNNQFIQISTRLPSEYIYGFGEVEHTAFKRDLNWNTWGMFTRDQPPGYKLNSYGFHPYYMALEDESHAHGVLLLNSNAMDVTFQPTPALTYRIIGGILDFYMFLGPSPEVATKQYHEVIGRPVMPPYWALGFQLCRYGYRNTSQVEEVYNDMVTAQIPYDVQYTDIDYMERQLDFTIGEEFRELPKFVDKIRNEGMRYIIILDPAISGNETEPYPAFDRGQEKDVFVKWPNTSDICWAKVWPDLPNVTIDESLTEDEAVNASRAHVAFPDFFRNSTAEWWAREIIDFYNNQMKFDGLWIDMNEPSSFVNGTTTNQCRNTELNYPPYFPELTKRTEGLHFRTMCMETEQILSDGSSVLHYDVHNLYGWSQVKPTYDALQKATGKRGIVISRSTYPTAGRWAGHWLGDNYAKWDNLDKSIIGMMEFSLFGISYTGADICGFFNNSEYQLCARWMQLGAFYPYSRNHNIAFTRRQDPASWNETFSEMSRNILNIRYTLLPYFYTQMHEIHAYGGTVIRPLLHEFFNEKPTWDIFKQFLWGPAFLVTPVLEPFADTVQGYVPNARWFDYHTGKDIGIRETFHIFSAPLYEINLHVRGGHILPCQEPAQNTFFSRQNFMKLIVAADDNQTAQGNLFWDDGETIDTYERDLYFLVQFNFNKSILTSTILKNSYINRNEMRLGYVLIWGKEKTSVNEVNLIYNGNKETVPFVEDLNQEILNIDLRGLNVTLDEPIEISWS

Regarding `C[C@H]1O[C@H](O[C@H]2[C@H](O)[C@@H](O)[C@@H](O[C@H]3[C@H](O)[C@@H](O)[C@@H](O[C@H]4[C@H](O)[C@@H](O)C(O)O[C@@H]4CO)O[C@@H]3CO)O[C@@H]2CO)[C@H](O)[C@@H](O)[C@@H]1N[C@H]1C=C(CO)[C@@H](O)[C@H](O)[C@H]1O` (stereo partly drawn) [Formula IV, O-{4,6-bisdesoxy-4-[1S-(1,4,6/5)-4,5,6-trihydroxy-3-hydroxymethylcyclohex-2-en-1-ylamino]-α-D-glucopyranosyl}-(1→4)-O-α-D-glucopyranosyl-(1→4)-O-α-D-glucopyranosyl-(1→4)-D-glycopyranose], the in vitro saccharase inhibiting activity worked out at 19000 SIU/g.
